According to US10767160B2, “Methods for modulating production profiles of recombinant proteins” (ARES TRADING S.A., priority 2015, dated 2020):
Like-named read-outs stand apart in the source and are kept apart here.

Assays:
recombinant CHO cells [1] = details: batch culture, end of production run, after 8 days of culture; cited from earlier work
recombinant CHO cells [2] = details: perfusion batch culture, within 6 days of treatment; cited from earlier work
[3] = system: CHO-S cells expressing IgG1 mAb1; test: Fed-batch culture in microplates, host cells expressing mAb1; type: cell-based, Chinese Hamster
Method: (§1) Assays were performed with 2 CHO cell lines: • CHO-S cells expressing IgG1 mAb1, herein “Cells mAb1” or “mAb1 cells”. “mAb1” is a fully human monoclonal antibody directed against a soluble protein. Its isoelectric point (pI) is about 8.20-8.30. • CHO-K1 cells expressing IgG1 mAb2, herein “Cells mAb2” or “mAb2 cells”. “mAb2” is a humanised monoclonal antibody directed against a receptor found on the cell membrane. Its isoelectric point (pI) is about 9.30. 2) Cell Expansion
(§2) Cells expressing mAb2 were inoculated at 0.2×10^6 cells per millilitre (mL), whereas cells expressing mAb1 were inoculated at 0.3×10^6 cells per mL.
(§3) All assays were performed in fed-batch culture. The host cells were cultured in fed-batch system either in microplates (“Deep well plate”) or in Spin Tubes®, and incubated at 36.5° C., 90% relative humidity, 5% CO2 and 320 rpm shaking during 14 days.
(§4) Viable cell density and viability were measured with the Guava easyCyte® flow cytometer or with the ViCell.
(§5) Antibody titres were measured with the fortêBIO Octet® or with Biacore C®.
(§6) Glycosylation profiles were established by capillary gel electrophoresis with laser-induced fluorescence (CGE-LIF). Dosages of aggregates and fragments were performed respectively via Size Exclusion High Performance Liquid Chromatography (SE-HPLC) and SDS-capillary gel electrophoresis.

[4] = system: CHO-K1 cells expressing IgG1 mAb2; type: cell-based, Chinese Hamster
Method: as §1, §2, §3, §4, §5, §6

[5] = system: CHO-S cells expressing IgG1 mAb1; test: Fed-batch culture in Spin Tubes, host cells expressing mAb1; type: cell-based, Chinese Hamster
Method: as §1, §2, §3, §4, §5, §6

[6] = about 0.4 μM to about 17 μM, microplates
[7] = about 83 μM to about 833 μM, microplates
[8] = about 4.3 and/or about 8.5 μM, Spin Tubes
[9] = about 167 μM or about 417 μM, microplates
[10] = up to 25 μM and 41.7 μM, microplates
[11] = similar concentrations (8.5 μM), Spin tubes

SMILES: CCCC(=O)[O-].[Na+] [sodium butyrate]
- cell viability (recombinant CHO cells [1]): less than 45%
- cell viability (recombinant CHO cells [2]): 15%

SMILES: O=S(=O)(O)c1cc(Nc2nc(Cl)nc(Nc3ccc(Nc4nc(Cl)nc(Nc5cc(S(=O)(=O)O)cc6cc(S(=O)(=O)O)c(N=Nc7ccccc7S(=O)(=O)O)c(O)c56)n4)cc3)n2)c2c(O)c(N=Nc3ccccc3S(=O)(=O)O)c(S(=O)(=O)O)cc2c1 [Reactive Red 120]
- viable cell density increase compared to control ([3]; 17.3 μM, day 7, microplates): 1.5 factor
- titre increase compared to control ([3]; 17.3 μM, day 14, microplates): 1.3 factor
- maximum titre relative to control cells ([3]; 83 μM, microplates): 1.2 fold
- cell viability [3, 6]: (slightly) reduced
- titre [3, 6]: increased significantly
- viable cell density [3, 6]: increased significantly
- toxicity limit ([3]; about 17 μM, microplates): did not seem to have been reached
- cell viability [3, 7]: decrease significantly
- titre [3, 7]: remained superior or equal to what was obtained with control cells
- viable cell density [3, 7]: decrease significantly
- toxicity ([3]; above 83 μM, microplates): becomes toxic
- specific productivity [4, 8]: increase
- titre [4, 8]: increase
- viability compared to control ([4]; until the end of the culture, Spin Tubes): maintained
- titre increase ([5]; 8.6 μM, Spin Tubes): 1.2 factor
- cell viability compared to control ([5]; about 4.3 and/or about 8.5 μM, after day 10, Spin Tubes): only slightly affected
- viable cell density ([5]; about 4.3 and/or about 8.5 μM, days 5-9, Spin Tubes): increased

SMILES: Nc1c(S(=O)(=O)O)cc(Nc2ccc(Nc3nc(Cl)nc(Nc4ccccc4S(=O)(=O)O)n3)c(S(=O)(=O)O)c2)c2c1C(=O)c1ccccc1C2=O [Cibacron Blue 3GA]
- titre ([3]; about 83 μM, microplates): still significantly increased
- cell viability [3, 9]: decreased
- titre [3, 9]: impact on the titre was observed
- quantity of secreted recombinant protein (titre) compared to control ([3]; about 8.3 to about 41.7 μM, microplates): 1.5 fold
- titre [3, 10]: increased significantly
- viable cell density [3, 10]: increased significantly
- productivity of antibodies mAb2 [4, 11]: increased
- titre multiplied at the end of cell culture [4, 11]: 1.2
- specific productivity ([5]; 8.5 μM, Spin tubes): significantly increased
- titre increase at the end of the culture ([5]; 8.5 μM, Spin tubes): 1.25 factor
- maximum density of viable cells ([5]; 8.5 μM, days 6-9, Spin tubes): increased
- viability compared to control ([5]; 8.5 μM, starting on day 7, Spin tubes): decrease of viability
